In assay [1] the target is T1, recombinant form of Glutaminase 1 (GAC) (Homo sapiens, UniProt O94925).
T1 sequence (O94925 137-598 isoform O94925-3 limits assumed): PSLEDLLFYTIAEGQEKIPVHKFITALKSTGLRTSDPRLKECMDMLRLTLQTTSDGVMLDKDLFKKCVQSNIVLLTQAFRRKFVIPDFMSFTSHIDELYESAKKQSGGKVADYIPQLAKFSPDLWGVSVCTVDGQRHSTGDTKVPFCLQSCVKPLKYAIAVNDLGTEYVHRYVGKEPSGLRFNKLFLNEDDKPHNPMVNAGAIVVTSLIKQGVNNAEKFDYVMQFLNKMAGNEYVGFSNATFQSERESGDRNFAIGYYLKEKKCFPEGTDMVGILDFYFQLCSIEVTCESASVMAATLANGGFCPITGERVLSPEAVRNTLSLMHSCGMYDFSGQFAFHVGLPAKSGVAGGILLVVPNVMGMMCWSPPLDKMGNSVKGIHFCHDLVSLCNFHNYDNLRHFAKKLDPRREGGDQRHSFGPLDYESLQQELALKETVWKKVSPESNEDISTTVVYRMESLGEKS
Kind of assay: Recombinant Enzyme Assay - Time Dependence (60 min preincubation). In kind it is biochemical. The method, then:
The enzyme/compound mix was sealed with sealing foil (USA Scientific) and allowed to incubate, with mild agitation, for 60 minutes at 20° C. Enzymatic reaction was started with the addition of 50 μL of substrate solution (50 mM Tris-HCl pH 8.0, 0.2 mM EDTA, 150 mM K2HPO4, 0.1 mg/ml BSA, 1 mM DTT, 20 mM L-glutamine, 2 mM NAD^+, and 10 ppm antifoam) and read in a Molecular Devices M5 plate reader at 20° C. The plate reader was configured to read absorbance (=340 nm) in kinetic mode for 15 minutes. Data was recorded as milli-absorbance units per minute and slopes were compared to a control compound and a DMSO-only control on the same plate. Compounds with slopes less than the DMSO control were considered inhibitors and plate variability was assessed using the control compound.

A further assay concerns P493-6 (myc "on") cells. The assay can be described thus: Cell Proliferation Assay. In kind it is cell-based. A digest of the protocol:
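Read-out: either Cell Titer Glo or Guava Viacount flow analysis after 72 h compound treatment of myc-on P493-6 cells (10,000/well, RPMI with 10% FBS) at 37 °C. DMSO held at 0.5% final.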

[2] abbreviates: read-out: GAC Delta N2 IC50 60 min preinc.
Setting [3] is: P493-6, 72 h, read-out: Cell prolif P493 72 h IC50, P493-6 cells, 72 h.

Like-named read-outs stand apart in the source and are kept apart here.

The source of these data is patent US20150004134A1, “TREATMENT OF CANCER WITH HETEROCYCLIC INHIBITORS OF GLUTAMINASE” (Calithera Biosciences, Inc., priority 2012, published 2015).

Turning to `O=C(Cc1cccc(Br)c1)Nc1nnc(CCCCc2nnc(NC(=O)Cc3cccc(Br)c3)s2)s1` [Compound 284], in assay [1], the IC50 came out at 50 nM.
As for `O=C(Cc1ccccc1)Nc1ccc(CCCCc2nnc(NC(=O)Cc3cccc(Cn4cccn4)c3)s2)nn1` [Compound 395], the IC50 worked out at 4 nM in assay [1] (setting [2]) and 15 nM in the assay on P493-6 (myc "on") cells (setting [3]).
In the same order, the values of `COc1cccc(CC(=O)Nc2nnc(CCCCc3ccc(NC(=O)Cc4ccccc4)nn3)s2)c1OC` [Compound 397] are 8 nM and 41 nM.
Take `COc1cc(CC(=O)Nc2nnc(CCCCc3ccc(NC(=O)Cc4ccccc4)nn3)s2)cc(OC)c1` [Compound 398]: the results for the IC50 (in assay [1] (setting [2]); in the assay on P493-6 (myc "on") cells (setting [3])) were 4 nM and 23 nM, respectively.
In the case of `CC(C)(C)OC(=O)Nc1ccc(CC(=O)Nc2nnc(CCCCc3ccc(NC(=O)Cc4ccccc4)nn3)s2)cc1` [Compound 400], the IC50 in assay [1] (setting [2]) worked out at 15 nM; in the assay with P493-6 (myc "on") cells (setting [3]), 53 nM.
Take `CC(C)(C)OC(=O)NCc1ccc(CC(=O)Nc2nnc(CCCCc3ccc(NC(=O)Cc4ccccc4)nn3)s2)cc1` [Compound 401]: the IC50 is 5 nM in assay [1] (setting [2]) and 11 nM in the assay on P493-6 (myc "on") cells (setting [3]).
Regarding `COc1cccc(C(OC(=O)CCN2CCOCC2)C(=O)Nc2nnc(CCCCc3ccc(NC(=O)Cc4ccccc4)nn3)s2)c1` (stereo not shown) [Compound 404], the IC50 was 60 nM in assay [1] (setting [2]) and 22 nM with P493-6 (myc "on") cells (setting [3]).
In the same order, the values of `CN(C)Cc1cccc(CC(=O)Nc2nnc(CCCCc3ccc(NC(=O)Cc4ccccc4)nn3)s2)c1` [Compound 406] are 16 nM and 270 nM.
With `CNCc1cccc(CC(=O)Nc2nnc(CCCCc3ccc(NC(=O)Cc4ccccc4)nn3)s2)c1` [Compound 408], the IC50 in assay [1] (setting [2]) stood at 18 nM; with P493-6 (myc "on") cells (setting [3]) it was 190 nM.
As to `Nc1ccc(CC(=O)Nc2nnc(CCCCc3ccc(NC(=O)Cc4ccccc4)nn3)s2)cc1` [Compound 410], the results for the IC50 (in assay [1] (setting [2]); in the assay with P493-6 (myc "on") cells (setting [3])) were 9 nM and 57 nM, respectively.
In the same order, the values of `CC(C)(C)OC(=O)NCc1cccc(CC(=O)Nc2nnc(CCCCc3ccc(N)nn3)s2)c1` [Compound 412] are 28 nM and 110 nM.
In the same order, the values of `O=C(Cc1ccccc1)Nc1ccc(CCCCc2nnc(NC(=O)Cc3cccc(OC(F)(F)F)c3)s2)nn1` [Compound 413] are 7 nM and 45 nM.
With `O=C(Cc1ccccc1)Nc1ccc(CCCCc2nnc(NC(=O)Cc3cc(F)cc(C(F)(F)F)c3)s2)nn1` [Compound 414], the IC50 in assay [1] (setting [2]) turned out to be 10 nM; in the assay on P493-6 (myc "on") cells (setting [3]) it was 58 nM.
Turning to `COc1cccc(CNC(=O)Nc2nnc(CCCCc3nnc(NC(=O)Cc4ccccc4)s3)s2)c1` [Compound 416], the IC50 was found to be 55 nM in assay [1] (setting [2]) and 350 nM in the assay on P493-6 (myc "on") cells (setting [3]).
Take `CCNC(=O)Nc1nnc(CCCCc2ccc(NC(=O)Cc3ccccc3)nn2)s1` [Compound 418]: the IC50 in assay [1] (setting [2]) turned out to be 140 nM; in the assay with P493-6 (myc "on") cells (setting [3]) it was 320 nM.
Consider `O=C(Cc1ccccc1)Nc1ccc(CCCCc2nnc(NC(=O)Nc3ccccc3)s2)nn1` [Compound 419], for which the IC50 came to 24 nM in assay [1] (setting [2]) and 64 nM in the assay on P493-6 (myc "on") cells (setting [3]).
In the same order, the values of `CCNC(=O)Nc1ccc(CCCCc2nnc(NC(=O)Cc3cccc(CN)c3)s2)nn1` [Compound 421] are 290 nM and 160 nM.
For the compound `NCc1cccc(CC(=O)Nc2nnc(CCCCc3ccc(NC(=O)C(O)c4cccc(Cl)c4)nn3)s2)c1` (stereo not shown) [Compound 423], the IC50 in assay [1] (setting [2]) was determined as 22 nM; in the assay on P493-6 (myc "on") cells (setting [3]), 42 nM.
In the case of `CC(=O)Nc1ccc(CCCCc2nnc(NC(=O)Cc3cccc(CNC(=O)OC(C)(C)C)c3)s2)nn1` [Compound 424], the figures for the IC50 (in assay [1] (setting [2]); with P493-6 (myc "on") cells (setting [3])) were 6 nM and 8 nM, respectively.
Regarding `CC(C)(C)OC(=O)NCc1cccc(CC(=O)Nc2nnc(CCCCc3ccc(NC(=O)Cc4cccc(OC(F)(F)F)c4)nn3)s2)c1` [Compound 586], the IC50 in assay [1] (setting [2]) stood at 13 nM.
As for `O=C(Cc1ccccc1OC(F)(F)F)Nc1ccc(CCCCc2nnc(NC(=O)Cc3ccccc3)s2)nn1` [Compound 614], in assay [1] (setting [2]), the IC50 turned out to be 8 nM.
Take `O=C(Cc1ccc(OC(F)(F)F)cc1)Nc1ccc(CCCCc2nnc(NC(=O)Cc3ccccc3)s2)nn1` [Compound 615]: in assay [1] (setting [2]), the IC50 turned out to be 9 nM.
With `O=C(O)Cc1cccc(OCC(=O)Nc2nnc(CCCCc3ccc(NC(=O)Cc4ccccc4)nn3)s2)c1` [Compound 627], the IC50 in the assay on P493-6 (myc "on") cells (setting [3]) stood at 850 nM.
Still for that read-out and setting: next, `COC(=O)Cc1cccc(OCC(=O)Nc2nnc(CCCCc3ccc(NC(=O)Cc4ccccc4)nn3)s2)c1` [Compound 628]: 170 nM; `CS(=O)(=O)Cc1cccc(CC(=O)Nc2nnc(CCCCc3ccc(NC(=O)Cc4ccccc4)nn3)s2)c1` [Compound 634]: 48 nM.
Regarding `CC(C(=O)Nc1nnc(CCCCc2ccc(NC(=O)Cc3cccc(OC(F)(F)F)c3)nn2)s1)c1ccccc1` (stereo not shown) [Compound 636], the IC50 in assay [1] (setting [2]) turned out to be 8 nM.
Turning to `O=C(Cc1ccccc1)Nc1nnc(CCCCc2nnc(NC(=O)Cc3ccccc3)o2)o1` [Compound 637], the IC50 with P493-6 (myc "on") cells (setting [3]) is over 50000 nM.
Same read-out and setting: for `O=C(Cc1cccnc1)Nc1nnc(CCSCCc2nnc(NC(=O)Cc3cccnc3)s2)s1` [Compound 638] the value was 5700 nM.
Turning to `Cc1noc(Cc2cccc(CC(=O)Nc3ccc(CCCCc4nnc(NC(=O)Cc5ccccc5)s4)nn3)c2)n1` [Compound 648, 2-(3-((3-methyl-1,2,4-oxadiazol-5-yl)methyl)phenyl)-N-(6-(4-(5-(2-phenylacetamido)-1,3,4-thiadiazol-2-yl)butyl)pyridazin-3-yl)acetamide], the IC50 in the assay on P493-6 (myc "on") cells (setting [3]) amounted to 11 nM.
`O=C(Cc1ccccc1)Nc1ccc(CCCCc2nnc(NC(=O)Cc3cccc4c3CNC4)s2)nn1` [Compound 650]: the IC50 with P493-6 (myc "on") cells (setting [3]) was found to be 140 nM.
For `CC(=O)N1Cc2cccc(CC(=O)Nc3nnc(CCCCc4ccc(NC(=O)Cc5ccccc5)nn4)s3)c2C1` [Compound 651], the IC50 in the assay with P493-6 (myc "on") cells (setting [3]) stood at 37 nM.
Turning to `Cc1nnc(Cc2cccc(CC(=O)Nc3ccc(CCCCc4nnc(NC(=O)Cc5ccccc5)s4)nn3)c2)o1` [Compound 652, 2-(3-((5-methyl-1,3,4-oxadiazol-2-yl)methyl)phenyl)-N-(6-(4-(5-(2-phenylacetamido)-1,3,4-thiadiazol-2-yl)butyl)pyridazin-3-yl)acetamide], the IC50 in the assay with P493-6 (myc "on") cells (setting [3]) worked out at 39 nM.
The same measure, in the same setting: for `CC(NC(=O)OC(C)(C)C)c1cc(CC(=O)Nc2nnc(CCCCc3ccc(NC(=O)Cc4ccccc4)nn3)s2)ccc1F` (stereo not shown) [Compound 653] the value was 10 nM; for `CC(NC(=O)OC(C)(C)C)c1cc(CC(=O)Nc2ccc(CCCCc3nnc(NC(=O)Cc4ccccc4)s3)nn2)ccc1F` (stereo not shown) [Compound 654], 7 nM.
As for `Nc1nnc(CCCCc2ccc(NC(=O)Cc3cccc(OC(F)(F)F)c3)nn2)s1` [Compound 657, N-(6-(4-(5-amino-1,3,4-thiadiazol-2-yl)butyl)pyridazin-3-yl)-2-(3-(trifluoromethoxy)phenyl)acetamide], the IC50 with P493-6 (myc "on") cells (read-out: Cell prolif P493 72 h IC50, P493-6 cells, 72 h) amounted to 1500 nM.
In the case of `COc1cccc(CC(=O)Nc2nnc(CCCCc3ccc(NC(=O)Cc4cccc(OC(F)(F)F)c4)nn3)s2)c1` [Compound 658], the IC50 in assay [1] (setting [2]) came to 5 nM.
On to `O=C(Cc1cccc(OC(F)(F)F)c1)Nc1ccc(CCCCc2nnc(NC(=O)Cc3cc(F)ccc3F)s2)nn1` [Compound 659], for which, in assay [1] (setting [2]), the IC50 is 10 nM.
In the case of `O=C(Cc1cccc(OC(F)(F)F)c1)Nc1ccc(CCCCc2nnc(NC(=O)Cc3cc(F)cc(F)c3)s2)nn1` [Compound 662], in assay [1] (setting [2]), the IC50 was found to be 7 nM.
Regarding `O=C(Cc1ccccc1)Nc1ccc(CCCCc2nnc(NC(=O)Cc3cccc(OC(F)F)c3)s2)nn1` [Compound 664], in the assay with P493-6 (myc "on") cells (setting [3]), the IC50 is 60 nM.
Regarding `O=C(Cc1cccc(OC(F)(F)F)c1)Nc1ccc(CCCCc2nnc(NC(=O)Cc3cccc(OC(F)F)c3)s2)nn1` [Compound 668], the IC50 in assay [1] (setting [2]) was found to be 9 nM.
Turning to `O=C(Cc1cccc(OC(F)(F)F)c1)Nc1ccc(CCCCc2nnc(NC(=O)Cc3cccc(OCC(F)(F)F)c3)s2)nn1` [Compound 669], the IC50 in assay [1] (setting [2]) is 21 nM.
Still for that read-out and setting: for `O=C(Cc1cccc(OC(F)(F)F)c1)Nc1ccc(CCCCc2nnc(NC(=O)Cc3ccncc3)s2)nn1` [Compound 672] the value was 10 nM.
On the same count and under the same terms, next, `O=C(Cc1cccc(OC(F)(F)F)c1)Nc1ccc(CCCCc2nnc(NC(=O)Cc3ccccc3F)s2)nn1` [Compound 673]: 6 nM; `CSc1cccc(CC(=O)Nc2nnc(CCCCc3ccc(NC(=O)Cc4cccc(OC(F)(F)F)c4)nn3)s2)c1` [Compound 674]: 8 nM.
Turning to `[2H]C([2H])(CCc1nnc(NC(=O)Cc2ccccn2)s1)C([2H])([2H])c1ccc(NC(=O)Cc2cccc(OC(F)(F)F)c2)nn1` [Compound 727], the IC50 with P493-6 (myc "on") cells (read-out: Cell prolif P493 72 h IC50, 72 h) was determined as 12 nM.
With `O=C(Cc1ccccc1)Nc1ccc(CCCCc2ccc(NC(=O)Cc3ccccc3)nn2)nn1` [Compound 1038], in the assay on P493-6 (myc "on") cells (P493-6, 72 h, read-out: Cell prolif P493 72 h IC50, P493 cells, 72 h), the IC50 is 1500 nM.
